Experimental data taken from ChEMBL document CHEMBL1201862, “PubChem BioAssay data set” (2004).
Activity calls are given as the source filed them.

Assays:
[1] = inhibitors of SNCA 5'UTR-driven reporter translation, confirmation, H4 neuroglioma cells, luminescence (AID 1988); assay type: functional, cell-based
[2] = inhibitors of firefly luciferase expression or activity, dose response, H4 neuroglioma cells, luminescence (AID 1990); assay type: functional, cell-based
[3] = growth induction of Burl-1 ts yeast mutant, dose response, counter-screen for SUMOylation pathway inhibitor project, whole organism, S. cerevisiae, luminescence (AID 463199); assay type: functional
[4] = test system: H9c2; assay: cells; assay type: functional, cell-based; details: Rattus norvegicus, H9c2, Myocardium;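 note: confirmatory concentration-response retest of ultra-high-throughput screening hits for modulation of myocardial damage; cell death induced by hydrogen peroxide oxidative stress; compound pretreatment for 60 min then peroxide exposure for 2 h; potency is for protecting the cells against peroxide damage rather than for killing them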
[5] = Luminescence Cell-Based Dose Response HTS to Identify Inhibitors of 5'UTR Stem-Loop Driven Prion Protein mRNA Translation in H4 Neuroglioblastoma Cells. [Related pubchem assays: 1827 (Project Summary), 1813 (Primary HTS)]; assay type: functional
[6] = biological target: T1, G-protein coupled receptor 55 (Homo sapiens, UniProt Q9Y2T6); assay: GPR55 agonists via beta-arrestin recruitment, primary screen, imaging, U2OS cells, beta-arrestin-GFP redistribution (AID 1961); assay type: functional
[7] = biological target: T2, Tyrosine-protein phosphatase non-receptor type 22 (Homo sapiens, UniProt Q9Y2R2); assay: LYP (PTPN22) phosphatase inhibitor potency, SAR follow-up, biochemical, pCAP fluorogenic substrate, fluorescence, set 3 (AID 449727); assay type: functional
T2 sequence (Q9Y2R2 whole entry): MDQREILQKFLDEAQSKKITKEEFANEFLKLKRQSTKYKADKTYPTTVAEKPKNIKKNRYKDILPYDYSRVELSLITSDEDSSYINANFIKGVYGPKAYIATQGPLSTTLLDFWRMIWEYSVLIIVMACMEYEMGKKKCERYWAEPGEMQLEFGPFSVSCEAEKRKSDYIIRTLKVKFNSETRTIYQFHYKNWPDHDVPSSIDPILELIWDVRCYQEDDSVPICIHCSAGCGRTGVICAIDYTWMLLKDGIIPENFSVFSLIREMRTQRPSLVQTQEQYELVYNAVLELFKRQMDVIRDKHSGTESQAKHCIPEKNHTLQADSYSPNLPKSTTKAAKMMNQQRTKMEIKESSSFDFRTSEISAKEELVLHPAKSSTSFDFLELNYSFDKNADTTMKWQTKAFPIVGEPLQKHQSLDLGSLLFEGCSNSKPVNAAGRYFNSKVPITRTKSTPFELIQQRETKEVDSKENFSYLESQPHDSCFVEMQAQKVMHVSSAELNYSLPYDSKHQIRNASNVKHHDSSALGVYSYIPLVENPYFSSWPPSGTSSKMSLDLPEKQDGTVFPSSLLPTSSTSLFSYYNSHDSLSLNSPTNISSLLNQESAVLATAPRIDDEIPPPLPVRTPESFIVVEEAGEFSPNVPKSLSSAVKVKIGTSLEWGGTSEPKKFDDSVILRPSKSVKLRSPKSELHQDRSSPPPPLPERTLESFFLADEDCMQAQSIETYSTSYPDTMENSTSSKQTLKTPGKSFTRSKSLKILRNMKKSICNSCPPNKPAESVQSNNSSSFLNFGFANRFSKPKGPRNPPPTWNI

[8] = biological target: T3, G-protein coupled receptor 35 (Homo sapiens, UniProt Q9HC97); assay: GPR35 antagonists blocking zaprinast-driven arrestin recruitment, primary screen, imaging, U2OS, beta-arrestin-GFP, zaprinast agonist (AID 2058); assay type: functional;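 note: antagonist potency meaning inhibition of agonist-induced arrestin redistribution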
[9] = biological target: T1, G-protein coupled receptor 55; assay: GPR55 antagonists, SAR follow-up, counter-screen for GPR35 antagonist project, imaging, image-based (AID 2397); assay type: functional
[10] = biological target: T2, Tyrosine-protein phosphatase non-receptor type 22; assay: SAR LYP1 Fluorescent Assay using OMFP substrate for In Vitro dose response studies - Set 3. [Related pubchem assays (depositor defined):AID1779, AID1784, AID2140, AID2686]; assay type: functional
[11] = biological target: Tyrosine-protein phosphatase non-receptor type 12 (Homo sapiens, UniProt Q05209); assay: SAR Selectivity Analysis of small molecule inhibitors of PEST using pCAP in a fluorescence assay. [Related pubchem assays (depositor defined):AID1779, AID1784, AID2135]; assay type: functional
[12] = biological target: T3, G-protein coupled receptor 35; assay: SAR Analysis for the identification of Selective Antagonists of ERK1/2 Activity in GPR35-Overexpressing U2OS Cells. [Related pubchem assays: 2079, 2058 ]; assay type: functional, cell-based
[13] = biological target: T4, Tyrosine-protein phosphatase non-receptor type 7 (Homo sapiens, UniProt P35236); assay: HePTP (PTPN7) phosphatase inhibitor potency, SAR follow-up, biochemical, set 2 (AID 449736); assay type: functional
T4 sequence (P35236 whole entry): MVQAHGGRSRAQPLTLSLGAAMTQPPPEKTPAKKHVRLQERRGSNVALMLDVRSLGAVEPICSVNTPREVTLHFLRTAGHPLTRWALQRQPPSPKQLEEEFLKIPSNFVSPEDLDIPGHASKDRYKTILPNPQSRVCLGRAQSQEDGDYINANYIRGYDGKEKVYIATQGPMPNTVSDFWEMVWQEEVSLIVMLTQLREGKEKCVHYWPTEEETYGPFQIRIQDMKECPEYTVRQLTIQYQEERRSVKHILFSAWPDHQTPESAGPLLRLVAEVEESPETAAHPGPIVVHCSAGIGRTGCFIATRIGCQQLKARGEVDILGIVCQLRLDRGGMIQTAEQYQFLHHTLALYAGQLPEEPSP

[14] = biological target: CAAX prenyl protease 1 (Saccharomyces cerevisiae S288c, UniProt P47154); assay: Ste24 protease inhibitors, dose response, biochemical, S. cerevisiae, plate reader, cherry-pick (AID 488815)
[15] = biological target: T5, Coagulation factor XII (Homo sapiens, UniProt P00748); assay: FXIIa inhibitor potency, concentration-response, biochemical (AID 716); assay type: functional
T5 sequence (P00748 whole entry): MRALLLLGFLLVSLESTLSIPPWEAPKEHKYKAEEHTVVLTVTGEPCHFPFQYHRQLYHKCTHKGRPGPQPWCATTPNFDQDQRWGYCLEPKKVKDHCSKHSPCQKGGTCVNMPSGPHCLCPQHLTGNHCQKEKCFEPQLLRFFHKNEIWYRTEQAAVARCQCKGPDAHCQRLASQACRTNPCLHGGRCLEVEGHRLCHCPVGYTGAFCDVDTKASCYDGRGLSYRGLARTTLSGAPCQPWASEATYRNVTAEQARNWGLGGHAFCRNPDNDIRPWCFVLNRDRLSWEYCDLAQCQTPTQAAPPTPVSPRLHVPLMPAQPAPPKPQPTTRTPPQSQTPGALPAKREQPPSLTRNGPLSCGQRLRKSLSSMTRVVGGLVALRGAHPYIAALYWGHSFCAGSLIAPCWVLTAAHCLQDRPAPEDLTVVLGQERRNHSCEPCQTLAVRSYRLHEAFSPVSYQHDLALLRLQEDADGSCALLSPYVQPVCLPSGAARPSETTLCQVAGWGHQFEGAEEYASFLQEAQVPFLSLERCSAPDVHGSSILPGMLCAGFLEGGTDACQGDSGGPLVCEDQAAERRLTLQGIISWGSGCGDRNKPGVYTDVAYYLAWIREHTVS

[16] = biological target: T6, CAAX prenyl protease 2 (Homo sapiens, UniProt Q9Y256); assay: human Rce1 protease inhibitors, dose response, biochemical, yeast membranes, quenched-peptide fluorescence, cherry-pick (AID 588849)
T6 sequence (Q9Y256 whole entry): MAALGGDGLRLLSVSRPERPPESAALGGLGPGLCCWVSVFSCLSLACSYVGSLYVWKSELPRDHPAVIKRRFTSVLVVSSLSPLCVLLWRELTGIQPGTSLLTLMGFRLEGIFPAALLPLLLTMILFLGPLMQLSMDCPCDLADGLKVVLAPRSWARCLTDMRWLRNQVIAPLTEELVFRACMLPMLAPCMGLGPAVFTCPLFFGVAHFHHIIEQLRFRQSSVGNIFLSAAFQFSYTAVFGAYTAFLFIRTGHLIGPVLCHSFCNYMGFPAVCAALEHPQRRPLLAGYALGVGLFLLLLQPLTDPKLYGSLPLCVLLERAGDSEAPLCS

[17] = biological target: T7, Replicative DNA helicase DnaB (Mycobacterium tuberculosis, UniProt P9WMR3); assay: DnaB intein splicing inhibitors, dose response, biochemical, cell-free fluorescence (AID 449749); assay type: functional
T7 sequence (P9WMR3 whole entry): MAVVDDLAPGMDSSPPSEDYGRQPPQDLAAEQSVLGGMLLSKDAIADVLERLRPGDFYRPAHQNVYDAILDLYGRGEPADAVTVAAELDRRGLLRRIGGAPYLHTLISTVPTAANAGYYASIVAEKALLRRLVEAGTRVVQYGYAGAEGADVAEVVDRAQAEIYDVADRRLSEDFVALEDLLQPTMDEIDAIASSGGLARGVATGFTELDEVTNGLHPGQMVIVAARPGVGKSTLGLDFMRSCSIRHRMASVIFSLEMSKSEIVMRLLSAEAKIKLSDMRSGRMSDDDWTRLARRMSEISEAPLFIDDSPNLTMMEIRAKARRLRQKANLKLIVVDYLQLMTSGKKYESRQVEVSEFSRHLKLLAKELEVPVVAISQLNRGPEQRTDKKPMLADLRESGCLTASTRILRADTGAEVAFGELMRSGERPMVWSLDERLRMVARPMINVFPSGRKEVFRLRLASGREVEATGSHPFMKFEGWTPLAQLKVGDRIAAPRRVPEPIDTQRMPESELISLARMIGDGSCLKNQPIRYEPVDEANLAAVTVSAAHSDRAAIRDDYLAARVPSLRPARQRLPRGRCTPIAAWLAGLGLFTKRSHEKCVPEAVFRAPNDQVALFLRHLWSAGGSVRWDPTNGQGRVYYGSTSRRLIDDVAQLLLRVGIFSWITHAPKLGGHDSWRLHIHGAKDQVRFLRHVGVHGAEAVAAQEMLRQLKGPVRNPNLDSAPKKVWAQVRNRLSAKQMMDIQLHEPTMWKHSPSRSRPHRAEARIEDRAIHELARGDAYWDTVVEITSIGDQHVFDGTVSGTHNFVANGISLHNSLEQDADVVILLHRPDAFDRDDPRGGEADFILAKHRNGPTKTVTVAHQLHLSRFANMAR

[18] = biological target: T8, CAAX prenyl protease 2 (Saccharomyces cerevisiae S288c, UniProt Q03530); assay type: biochemical
T8 sequence (Q03530 whole entry): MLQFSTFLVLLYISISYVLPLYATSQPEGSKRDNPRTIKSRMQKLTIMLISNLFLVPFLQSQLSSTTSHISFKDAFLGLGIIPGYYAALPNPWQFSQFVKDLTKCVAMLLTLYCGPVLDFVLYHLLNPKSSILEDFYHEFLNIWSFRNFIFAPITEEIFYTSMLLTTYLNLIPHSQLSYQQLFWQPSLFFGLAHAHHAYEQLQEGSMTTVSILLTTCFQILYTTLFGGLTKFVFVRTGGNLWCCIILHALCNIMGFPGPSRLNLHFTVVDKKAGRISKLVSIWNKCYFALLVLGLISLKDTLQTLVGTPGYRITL

[19] = biological target: Trypsin (Sus scrofa, UniProt P00761); assay: porcine trypsin inhibitors, dose response, selectivity assay for Rce1 protease inhibitor project, biochemical, quenched peptide fluorescence, cherry-pick (AID 488789)
[20] = biological target: T9, Protein RecA (Mycobacterium tuberculosis, UniProt P9WHJ3); assay: Fluorescence Cell-Free Homogeneous Dose Retest to Identify Inhibitors of RecA-Intein Splicing Activity. [Related pubchem assays (depositor defined):AID2097, AID2223, AID489010, AID492950]; assay type: functional
T9 sequence (P9WHJ3 whole entry): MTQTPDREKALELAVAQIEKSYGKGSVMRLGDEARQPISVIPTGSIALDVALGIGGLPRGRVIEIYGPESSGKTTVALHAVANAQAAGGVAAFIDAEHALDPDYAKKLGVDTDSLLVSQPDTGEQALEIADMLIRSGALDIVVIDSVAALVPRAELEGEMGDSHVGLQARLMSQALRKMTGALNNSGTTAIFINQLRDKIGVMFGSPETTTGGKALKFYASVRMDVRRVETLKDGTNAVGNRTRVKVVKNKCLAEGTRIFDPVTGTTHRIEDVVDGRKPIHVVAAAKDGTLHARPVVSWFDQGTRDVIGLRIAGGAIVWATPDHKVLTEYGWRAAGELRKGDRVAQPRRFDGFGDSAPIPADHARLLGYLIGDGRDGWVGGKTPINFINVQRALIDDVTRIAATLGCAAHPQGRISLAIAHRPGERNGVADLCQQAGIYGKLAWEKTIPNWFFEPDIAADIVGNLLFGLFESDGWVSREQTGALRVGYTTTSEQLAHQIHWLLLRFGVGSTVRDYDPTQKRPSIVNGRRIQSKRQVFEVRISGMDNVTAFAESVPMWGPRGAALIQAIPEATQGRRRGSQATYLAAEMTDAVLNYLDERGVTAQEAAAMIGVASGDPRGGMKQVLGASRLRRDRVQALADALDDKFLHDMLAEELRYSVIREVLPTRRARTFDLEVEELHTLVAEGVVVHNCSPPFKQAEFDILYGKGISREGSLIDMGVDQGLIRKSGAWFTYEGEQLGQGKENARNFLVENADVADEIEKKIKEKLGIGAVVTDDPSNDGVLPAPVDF

[21] = biological target: SUMO E1/E2 (Homo sapiens, UniProt P63279+Q9UBE0+Q9UBT2); assay: SAR analysis of SUMOylation using HTRF in an in-Vitro dose response assay. [Related pubchem assays (depositor defined):AID2006, AID2011, AID2018, AID2069, AID2658]; assay type: functional
Sequence of SUMO E1/E2 (Q9UBE0 whole entry): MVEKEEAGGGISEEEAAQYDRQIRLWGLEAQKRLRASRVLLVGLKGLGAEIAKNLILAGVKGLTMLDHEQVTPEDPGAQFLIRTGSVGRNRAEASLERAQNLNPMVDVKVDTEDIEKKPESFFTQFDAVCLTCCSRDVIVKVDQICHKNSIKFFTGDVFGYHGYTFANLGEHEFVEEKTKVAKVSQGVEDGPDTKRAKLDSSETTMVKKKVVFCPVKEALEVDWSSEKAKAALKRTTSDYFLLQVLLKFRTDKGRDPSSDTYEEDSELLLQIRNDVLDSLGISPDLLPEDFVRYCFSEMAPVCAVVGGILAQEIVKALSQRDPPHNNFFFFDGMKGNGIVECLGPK
Sequence of SUMO E1/E2 (Q9UBT2 whole entry): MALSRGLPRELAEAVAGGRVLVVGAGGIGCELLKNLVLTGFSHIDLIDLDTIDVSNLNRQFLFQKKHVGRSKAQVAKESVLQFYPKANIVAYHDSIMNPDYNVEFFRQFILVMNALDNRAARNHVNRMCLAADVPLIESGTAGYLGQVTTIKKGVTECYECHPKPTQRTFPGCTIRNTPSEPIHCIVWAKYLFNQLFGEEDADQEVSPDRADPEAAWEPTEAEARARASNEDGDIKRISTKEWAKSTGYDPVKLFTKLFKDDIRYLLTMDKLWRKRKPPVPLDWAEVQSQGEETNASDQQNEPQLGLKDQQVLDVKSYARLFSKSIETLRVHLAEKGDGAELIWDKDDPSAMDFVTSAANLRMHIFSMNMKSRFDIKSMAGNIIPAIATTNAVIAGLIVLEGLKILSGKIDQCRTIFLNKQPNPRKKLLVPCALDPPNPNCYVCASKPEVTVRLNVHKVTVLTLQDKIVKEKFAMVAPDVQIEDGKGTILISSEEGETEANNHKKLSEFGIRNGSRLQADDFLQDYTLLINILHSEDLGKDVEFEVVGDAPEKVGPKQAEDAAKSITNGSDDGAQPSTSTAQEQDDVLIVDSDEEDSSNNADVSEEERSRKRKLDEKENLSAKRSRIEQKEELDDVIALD
Sequence of SUMO E1/E2 (P63279 whole entry): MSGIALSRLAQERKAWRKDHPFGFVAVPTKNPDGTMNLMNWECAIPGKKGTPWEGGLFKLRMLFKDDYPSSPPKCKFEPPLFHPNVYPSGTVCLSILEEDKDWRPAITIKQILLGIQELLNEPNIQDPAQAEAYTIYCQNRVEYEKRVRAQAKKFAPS

T1 sequence (Q9Y2T6 whole entry): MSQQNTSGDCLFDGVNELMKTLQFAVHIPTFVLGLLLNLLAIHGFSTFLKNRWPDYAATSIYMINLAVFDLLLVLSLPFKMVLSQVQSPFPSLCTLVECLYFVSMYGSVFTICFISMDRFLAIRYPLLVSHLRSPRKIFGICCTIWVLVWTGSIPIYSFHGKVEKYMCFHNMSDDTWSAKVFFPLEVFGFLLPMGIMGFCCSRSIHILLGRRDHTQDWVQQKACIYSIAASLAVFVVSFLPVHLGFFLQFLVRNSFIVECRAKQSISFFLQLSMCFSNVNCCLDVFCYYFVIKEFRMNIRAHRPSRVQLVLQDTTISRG
T3 sequence (Q9HC97 whole entry): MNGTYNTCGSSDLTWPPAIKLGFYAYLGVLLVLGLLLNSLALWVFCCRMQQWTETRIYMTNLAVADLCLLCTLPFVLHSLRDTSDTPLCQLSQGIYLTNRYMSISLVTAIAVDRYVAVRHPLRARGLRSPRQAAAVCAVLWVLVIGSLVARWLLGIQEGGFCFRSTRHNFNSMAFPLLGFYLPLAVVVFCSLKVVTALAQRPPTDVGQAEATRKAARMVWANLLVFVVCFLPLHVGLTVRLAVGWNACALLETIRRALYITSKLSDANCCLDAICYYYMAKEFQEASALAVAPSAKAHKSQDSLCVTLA
Sequence of Tyrosine-protein phosphatase non-receptor type 12 (Q05209 whole entry): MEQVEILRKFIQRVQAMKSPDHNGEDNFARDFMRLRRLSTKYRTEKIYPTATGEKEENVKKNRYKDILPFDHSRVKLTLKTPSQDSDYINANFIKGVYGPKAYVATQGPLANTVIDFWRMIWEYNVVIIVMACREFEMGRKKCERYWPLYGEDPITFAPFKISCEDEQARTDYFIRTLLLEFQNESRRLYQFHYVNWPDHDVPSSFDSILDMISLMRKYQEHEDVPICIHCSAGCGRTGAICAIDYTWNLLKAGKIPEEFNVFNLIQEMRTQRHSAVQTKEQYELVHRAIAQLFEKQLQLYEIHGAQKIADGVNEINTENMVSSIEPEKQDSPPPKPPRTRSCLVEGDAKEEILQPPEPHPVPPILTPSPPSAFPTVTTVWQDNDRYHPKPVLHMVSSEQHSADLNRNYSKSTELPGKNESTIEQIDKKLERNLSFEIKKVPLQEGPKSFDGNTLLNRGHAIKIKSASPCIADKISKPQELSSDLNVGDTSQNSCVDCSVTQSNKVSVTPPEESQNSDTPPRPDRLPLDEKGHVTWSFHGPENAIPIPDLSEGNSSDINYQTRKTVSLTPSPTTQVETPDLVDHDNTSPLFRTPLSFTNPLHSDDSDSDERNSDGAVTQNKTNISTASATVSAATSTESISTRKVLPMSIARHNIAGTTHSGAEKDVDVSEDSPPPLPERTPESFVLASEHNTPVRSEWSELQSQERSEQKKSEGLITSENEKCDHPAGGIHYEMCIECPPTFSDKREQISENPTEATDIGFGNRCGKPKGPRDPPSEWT
Sequence of Trypsin (P00761 whole entry): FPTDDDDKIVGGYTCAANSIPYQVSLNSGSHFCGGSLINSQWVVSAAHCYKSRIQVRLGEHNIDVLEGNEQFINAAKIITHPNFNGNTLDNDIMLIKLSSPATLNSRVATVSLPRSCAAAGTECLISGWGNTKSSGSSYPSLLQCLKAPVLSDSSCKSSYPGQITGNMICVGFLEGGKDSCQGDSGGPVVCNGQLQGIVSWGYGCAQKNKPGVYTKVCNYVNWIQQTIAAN
Sequence of CAAX prenyl protease 1 (P47154 whole entry): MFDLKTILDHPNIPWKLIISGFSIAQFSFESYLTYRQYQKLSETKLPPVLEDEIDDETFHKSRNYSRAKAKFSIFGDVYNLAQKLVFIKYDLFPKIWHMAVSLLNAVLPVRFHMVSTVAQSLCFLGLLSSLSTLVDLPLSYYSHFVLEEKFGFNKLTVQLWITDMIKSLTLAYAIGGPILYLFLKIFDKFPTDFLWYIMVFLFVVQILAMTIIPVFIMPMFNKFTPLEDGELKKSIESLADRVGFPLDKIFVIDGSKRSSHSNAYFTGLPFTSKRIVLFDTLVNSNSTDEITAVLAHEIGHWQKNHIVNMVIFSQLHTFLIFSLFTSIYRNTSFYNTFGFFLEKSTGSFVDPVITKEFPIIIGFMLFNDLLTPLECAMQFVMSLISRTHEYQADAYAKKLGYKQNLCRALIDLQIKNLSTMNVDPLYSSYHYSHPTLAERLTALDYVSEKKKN

CCOC(=O)c1ccccc1NC(=O)CSc1ccc(-c2ccccn2)nn1
EC50 [1]: 10.8 µM (active)
EC50 [2]: 11.7 µM (active)
AC50 [3]: 62.6 µM (active)
IC50 [4]: 5.14 µM (active)
EC50 [5]: > 120 µM (not active)

Cc1ccc(/C=C2\SC(=S)N(CCCC(=O)Nc3cccc(C(=O)O)c3)C2=O)cc1
EC50 [6]: 1.45 µM (active)
IC50 [7]: 39 µM (active)
IC50 [8]: < 0.5 µM (active)
IC50 [9]: > 32 µM (inactive)
IC50 [10]: 30.2 µM (active)
IC50 [11]: 15.9 µM (active)
IC50 [12]: 1.39 µM (active)
IC50 [13]: 2.79 µM (active)

CC(C)C(=O)N1CCN(c2nc(-c3ccccc3)c3c(c2C#N)CCCC3)CC1
AC50 [14]: 6.09 µM (active)
IC50 [15]: > 50 µM (inactive)
AC50 [16]: 7.27 µM (active)
AC50 [17]: 7.76 µM (active)
AC50 [18]: 14.4 µM (active)
AC50 [19]: 1.74 µM (active)
EC50 [20]: 38.4 µM (active)

O=S(=O)(Nc1ccccc1F)c1ccc2c(c1)C1C=CCC1C(c1ccc(F)cc1)N2 (stereo unspecified)
IC50 [21]: > 100 µM (inactive)
